Experimental data taken from patent US8324282B2, “Alkylating agent combinations in the treatment of cancer” (Case Western Reserve University, priority 1999, dated 2012).

Tests used:
[1] = tested on: human bone marrow cells (CD34+ cells); assay: Colony forming assay, human bone marrow / CD34+ cells; type: cell-based; settings: human CD34+ cells; colony forming assay
Source text: We observed less myelosuppression and less weight loss using TMZ and MX than using TMZ and BG. […] To test this hypothesis, we conducted in vitro experiments comparing the sensitivity to BG+TMZ and MX+TMZ in colon cancer cell lines with that of mouse bone marrow and human bone marrow cells. […] MX increased TMZ killing by 4 fold in SW480 cells. […] Topoisomerase (Topo) I and Topo II recognize spontaneous AP sites and form stable cleavable complexes. We hypothesized that AP sites formed during repair of TMZ-induced N7 mG and N3 mA adducts would also be recognized by Topo I and Topo II. However since Base Excision Repair [BER] is normally quite efficient, we further hypothesized that the impact of Topo I and Topo II would be most important after MX inhibition of BER; increased unrepaired MX adducted AP sites should increase Topo mediated strand breaks and apoptosis. Therefore, potentiation of TMZ cytotoxicity by MX would be dependent on Topo I and II. […] Lack of Topo I and II results in less cleavable complex formation, fewer double strand DNA breaks, and less apoptosis. We predict a better therapeutic index for the combination of MX/TMZ than observed with BG/TMZ because of the relative overexpression of topoisomerases I and II in malignant cells compared to marrow progenitors.

[2] = tested on: AP sites in calf thymus DNA; assay: Competitive AP site binding assayed by Aldehyde Reactive Probe (ARP); settings: MX 5-20 mM
Source text: 1. Analysis of chemical—modified AP Sites assayed by Aldehyde Reactive Probe (ARP). This is a competitive assay to measure the reactivity with AP site between ARP reagent (Dojindo Molecular Technologies Inc., Gaithersburg, Md.) and the screening compounds. ARP and MX have a similar reactivity with AP sites. They react specifically with an aldehyde group that is open ring form of the AP sites. Thus this assay will allow identification of compounds with potential to block AP site repair based on the binding affinity and efficiency to AP sites of screening compounds compared to ARP and MX.
a. AP site standard preparation: AP sites were produced in a calf thymus DNA by heat/acid-buffer solution. Intact calf thymus DNA was added to sodium citrate buffer (10 mM sodium citrate containing 10 mM NaH2PO4 and 10 mM NaCl, pH 5.0) and held at 70° C. for 30 min. The reaction was stopped by chilling rapidly on ice, and the DNA was then precipitated with cold ethanol, washed with 70% ethanol, dried, and resuspended in sterilized distilled water.
b. […] After NC membrane was rinsed with washing buffer containing NaCl (0.26 M), EDTA (1 mM), Tris-HCI (20 mM), and Tween 20 (1%), ARP-AP sites are visualized with ECL reagents (Amersham Corp.) (FIG. 22A) and quantitated by scanning densitometer (FIG. 22B).

SW480 xenograft = SW480 xenograft tumor response in nude mice; type: in vivo; settings: SW480 xenograft; Table 1 doses: TMZ 120, MX 2, BG+TMZ 30/120, MX+TMZ 2/120 mg/kg; daily for 5 days
SW480 cells = assay: Flow cytometry cell cycle distribution and apoptosis, SW480
Description: Median Effect Analysis (MEA). MEA was used to determine the dose-response interactions between TMZ and either MX or PD 128763. Drugs were combined at the ratio of the IC50 values for either TMZ and MX or TMZ and PD 128763 as determined by survival/concentration curves. The combination was compared to the cytotoxicity of each drug alone in every experiment. The combination index (CI) was determined from colony-forming assays at increasing levels of cell killing, using analysis of multiple drug interaction program (Biosoft, Cambridge, United Kingdom) developed based on method of Chou and Talalay (Chou and Talalay “Quantitative analysis of dose-effect relationship: the combined effects of multiple drugs on enzyme inhibitors” In: G. Weber (ed.) Advances in Enzyme Regulation, pp. 27-55, New York: Pergamon Press, 1983). CI values of less than or grater than 1 indicate synergy and antagonism, respectively, whereas a CI value of 1 indicates additivity of the drugs. Flow Cytometry for Cell Cycle Distribution Analysis. For cell cycle analysis, 10^6 cells were plated in 100-mm tissue culture dishes and exposed to MX (6 mM)/PD128763 (100 μM) or MX (6 mM)/PD128763 (100 μM) plus TMZ (300 μM) at 37° C. After 24 h-72 h of culture, cells were fixed in 80% ethanol and DNA was stained with 20 μg/ml propidium iodide. DNA fluorescence of PI-stained cells was measured with an Elite ESP flow cytometer/cell sorter (Coulter, Miami, Fla.). Cell cycle distribution was analyzed with Modfit 5.2 program (Verity software, Topsham, Mass.) at least 10,000 cells per data point. Western Blotting for PARP Cleavage Detection. Cell extracts were resolved by SDS-PAGE (12% polyacrylamide) in a Bio-Rad minigel apparatus at 150 V for 1 hr. […] The tumors were measured with calipers using the National Cancer Institute formula: V=L(mm)×I^2 (mm)/2 where L is the largest diameter and I is the smallest diameter of the tumor. […] The relative tumor volume (V/V0) was calculated by dividing the measured tumor volume (V) by the initial tumor volume (V0) at day 0. Tumor responses were quantified by tumor regrowth delay. Tumor growth delays were calculated according to: tumor growth delay=T2XC2X, where T2X and C2X represent the number of days treated and control tumors take to double in size from the day of treatment, respectively. […] Toxicity after treatment was evaluated by body weight measurements and peripheral WBC counting. Body weight was measured three times weekly from the first treatment until 2 weeks after the end of treatment. The weight loss was expressed as a percentage of the initial weight (initial weight−lowest weight/initial weight×100%). Peripheral WBCs were monitored 5 days after the end of treatment compared with WBCs of control mice.

AP-endonuclease (APE) = assay: AP site cleavage by AP-endonuclease (APE); type: biochemical
Description: 2. AP sites cleavaged by AP-endonuclease (APE). […] The assay may be performed as follows (see also FIGS. 23A and B):
a. AP site is prepared by replacing single nucleoside with deoxyuridine in duplex oligonucleotides (40 mer).
b. Regular AP site is produced in the duplex oligonucleotides by human uracil DNA glycosylase (LIDGase, Trevigen, Gaithersburg, Md.) to remove the uracil residue.
c. To generate MX-adducted AP site substrates: the UDG-treated duplex oligonucleotides are mixed with 10 mM MX in buffer containing 10 mM KPO4, pH 7.1 and incubated at 37° C. After 30 min, the substrates are recovered by ethanol precipitation, lyophilized, resuspended in water, and stored at −20° C.
d. APE-cleavage reaction: DNA substrates containing either regular AP-sites or chemicalmodified AP sites are incubated with APE (Trevigen, Gaithersburg, Md.) for 30 min and reactants are precipitated with 100% cold ethanol, washed with 70% ethanol and resuspended in TE buffer. The reactants are resolved by denaturing 20% polyacrylamide gel electrophoresis and visualized by silver staining (Silver Staining Kit, Pharmacia Biotech).

HCT116 cells = assay: Colony survival assay, HCT116; type: cell-based, human; settings: HCT116
Source text: Chemicals and Reagents. BG was generously provided by Dr. Robert Moschel (Frederick Cancer Research and Development Center, National Cancer Institute). Stock solution was made in dimethylsulfoxide. TMZ and BCNU were obtained from the Drug Synthesis and Chemistry Branch, Drug Therapeutic Program, National Cancer Center Institute. PD128763 was a gift from Park-Davis Pharmaceutical Division. 6-AN, 3-AB, MX and methylmethane sulfonate (MMS) were purchased from Sigma (ST. Louis, Mo.). Stock solutions of PD128763, 3-AB and 6-AN were prepared by dissolving in dimethylsulfoxide and added to cell culture at a final concentration of <1% DMSO, when cells were treated with these compounds. MX was dissolved in sterilized water (pH 7.0). All stock solutions were kept at −20° C. BCNU was prepared fresh in 0.5 ml of 100% ethanol, diluted in PBS, and used with in 10 min. Colony Survival Assay. SW480 cells were obtained from the ATCC. HCT116 cells were obtained from R. Boland, University of Michigan Medical Center. All cell lines were cultured in appropriate growth medium.
Cells (2000/dish) were plated, adhered for 18 hrs and treated with TMZ or
MMS plus or minus modifiers such as […], MX, 6-AN, 3-AB or PD128763, according to experimental protocol. After treatment, cells were washed and fresh medium was replaced. The cells were grown for a further 7 days prior to staining with methylene blue for determination of colonies containing more than 50 cells. Comparisons of drug induced cytotoxicity consisted of a calculation of the dose modification factor (DMF), defined as the ratio of the IC50 of either TMZ or MMS in the absence to that in the presence of indicted modifier(s), i.e., DMF═IC50 for TMZ alone/IC50 for TMZ plus modifier(s).

Structure (SMILES): CON [MX, methoxyamine]
- potentiation of TMZ cytotoxicity [1]: no potentiation
- AP binding sites blocked (relative reduction of ARP-detected AP sites by densitometry) [2]: 38-80%
- Tumor growth delays (SW480 xenograft): 2.0 ± 0.5 days
- effect of modifier alone on cell cycle distribution (SW480 cells): did not affect
- cleavage of modified AP sites by APE (AP-endonuclease (APE)): resistant to cleavage
- cytotoxicity of MX alone (HCT116 cells; 6 mM MX): nontoxic
- DMF of MMS (HCT116 cells; MMS 0-3 mM plus 6 mM MX 1 hr vs MMS alone): 2.3
- DMF (IC50 for TMZ alone/IC50 for TMZ plus modifier) (HCT116 cells; modifier plus TMZ vs TMZ alone): 3.1 fold
- effect of modifier on BCNU cytotoxicity (HCT116 cells; without BG): No enhancement
